The results in this text go back to ChEMBL document CHEMBL1157865, “Synthesis and evaluation of SQ109 analogues as potential anti-tuberculosis candidates” (2010).

The structures appear in SMILES notation. Values after ≈ are worked out from the molar mass of the structure shown.

In this experiment the test system is Mycobacterium tuberculosis. The experiment in a line: Antimycobacterial activity against multidrug-resistant Mycobacterium tuberculosis XDR 173 by BACTEC 460 radiometric method. Type of experiment: functional.
The MIC is the lowest concentration that inhibits growth of the organism. Turning to `CC(C)CCCC(C)CCNCCNC12CC3CC(CC(C3)C1)C2` (centres undefined), the MIC turned out to be 0.5 µM (≈ 0.167 µg/mL).
As to `CC(C)=CCC/C(C)=C/CNCCNC1C2CC3CC(C2)CC1C3` (centres undefined) [SQ109], inhibition of growth (MIC) required 0.5 µM (≈ 0.165 µg/mL).
In turn, `CC(C)CCCC(C)CCCC(C)CCNCCNC1C2CC3CC(C2)CC1C3` (centres undefined) yielded a minimum inhibitory concentration (MIC) of 1 µM (≈ 0.405 µg/mL).
With `CC(C)=CCC/C(C)=C/CC/C(C)=C/CNCCNC1C2CC3CC(C2)CC1C3` (centres undefined) the figure was 0.25 µM (≈ 0.0997 µg/mL).
